Holding throughout (type): cell-based
Experiment [1] concerns the target T1, 5-HT2A (Homo sapiens, UniProt P28223). Kind of experiment: Calcium mobilization (Ca++ flux) assay, agonist mode, 5-HT2A. Conditions: for 5-HT2A, Ca++ flux % activation @30 uM: relative to MAX serotonin control. From the text: (§1) Calcium Mobilization Assay Method (Performed by DiscoveRx Eurofins)
(§2) The Calcium No-Wash^PLUS assay monitors the activation of a GPCR via Gq secondary messenger signaling in a live cell, non-imaging assay format. Calcium mobilization in PathHunter® cell lines or other cell lines stably expressing Gq-coupled GPCRs is monitored using a calcium-sensitive dye that is loaded into cells. GPCR activation by a compound results in the release of calcium from intracellular stores and an increase in dye fluorescence that is measured in real-time.
(§3) Cell lines expressing the GPCR of interest were expanded from freezer stocks according to standard procedures. Cells were seeded in a total volume of 20 μL into black-walled, clear-bottom, Poly-D-lysine coated 384-well microplates and incubated at 37° C. for the appropriate time prior to testing.
(§4) Assays were performed in 1× Dye Loading Buffer consisting of 1× Dye, 1× Additive A and 2.5 mM Probenecid in HBSS/20 mM Hepes. Probenicid was prepared fresh. Cells were loaded with dye prior to testing. Media was aspirated from cells and replaced with 20 μL Dye Loading Buffer. Cells were incubated for 30-60 minutes at 37° C.
(§5) For agonist determination, cells were incubated with sample to induce response. After dye loading, cells were removed from the incubator and 10 μL HBSS/20 mM Hepes was added. 3× vehicle was included in the buffer when performing agonist dose curves to define the EC80 for subsequent antagonist assays. Cells were incubated for 30 minutes at room temperature in the dark to equilibrate plate temperature.
(§6) Intermediate dilution of sample stocks was performed to generate 4× sample in assay buffer. Compound agonist activity was measured on a FLIPR Tetra (MDS). Calcium mobilization was monitored for 2 minutes and 10 μL 4× sample in HBSS/20 mM Hepes was added to the cells 5 seconds into the assay.
(§7) Compound activity data was analyzed using CBIS data analysis suite (ChemInnovation, CA). For agonist mode assays, percentage activity is calculated using the following formula:
(§8) % Activity=100%×(mean RFU of test sample−mean RFU of vehicle control)/(mean MAX RFU control ligand−mean RFU of vehicle control).
(§9) In these studies, the MAX RFU was generated by using 0.1 mM serotonin for the calcium mobilization assay.
Background: A change in cytosolic calcium serves as a functional read-out for many receptors and channels.

Experiment [2] addresses T1, 5-HT2A. Kind of experiment: IPOne (IP1 HTRF) assay, CHO-K1 cells expressing human 5-HT2A. More on the design: expressed in transfected cells; host or cells: CHO-K1. Particulars: for activation at 0.3 µM / activation at 30 µM: CHO-K1, percentage of reference agonist α-Me-5-HT at its EC100; for EC50: CHO-K1, human 5-HT2A. The protocol: (§10) IPOne assays were performed using stably-transfected cell lines (CHO-K1) expressing human 5-HT2A or 5-HT2B receptors. Upon activation of these receptors, Gq-mediated myo-Inositol 1 phosphate (IP1) production is detected by a Homogeneous Time-Resolved Fluorescence (HTRF) competitive immunoassay, whereby an IP1 analog coupled to a fluorophore (acceptor) competes with endogenous IP1 for binding to a labeled anti-IP1 antibody (donor). The resulting signal is inversely proportional to the concentration of IP1 in the sample. Cells were incubated with an IP1 inhibitor (to prevent degradation and allow detection) and either reference compound or test compound. α-Me-5-HT was used as the assay reference agonist. Activation of 5-HT2A or 5-HT2B receptors was measured via accumulation of IP1 detected by HTRF. Agonist activity of test compounds was expressed as a percentage of the activity of the reference agonist at its EC100 concentration.
(In general: TR-FRET usually uses a lanthanide donor and a delayed reading to cut background.)

Experiment [3] concerns the target T2, 5-HT2B (Homo sapiens, UniProt P41595). The experiment in a line: IPOne (IP1 HTRF) assay, CHO-K1 cells expressing human 5-HT2B. Particulars: for activation at 0.3 µM / activation at 30 µM: CHO-K1, percentage of reference agonist α-Me-5-HT at its EC100; for EC50: CHO-K1, human 5-HT2B. More on the design: expressed in transfected cells; host or cells: CHO-K1. The protocol: as §10

For experiment [4], the target named is T1, 5-HT2A. Kind of experiment: PathHunter b-arrestin assay, agonist mode, 5-HT2A. From the text:
GPCR Arrestin Assay Methods
Arrestin Pathway (Performed by DiscoverX Eurofins)
The PathHunter® β-Arrestin assay monitors the activation of a GPCR in a homogenous, non-imaging assay format using a technology developed by DiscoverX called Enzyme Fragment Complementation (EFC) with β-galactosidase (β-Gal) as the functional reporter. […] EA is fused to β-Arrestin and PK is fused to the GPCR of interest.
When the GPCR is activated and β-Arrestin is recruited to the receptor, ED and EA complementation occurs, restoring β-Gal activity which is measured using chemiluminescent PathHunter® Detection Reagents.
PathHunter cell lines (DiscoveRx Eurofins) were expanded from freezer stocks according to standard procedures. Cells were seeded in a total volume of 20 μL into white walled, 384-well microplates and incubated at 37° C. for the appropriate time prior to testing. […]
b-Arrestin assay signal was generated through a single addition of 12.5 or 15 μL (50% v/v) of PathHunter Detection reagent cocktail, followed by a one-hour incubation at room temperature. Microplates were read following signal generation with a PerkinElmer Envision™ instrument for chemiluminescent signal detection.
Compound activity was analyzed using CBIS data analysis suite (ChemInnovation, CA). For agonist mode assays, percentage activity was calculated using the following formula: […]

Another experiment addresses T3, 5-HT2C (Homo sapiens, UniProt P28335).
T3 sequence (P28335 33-458): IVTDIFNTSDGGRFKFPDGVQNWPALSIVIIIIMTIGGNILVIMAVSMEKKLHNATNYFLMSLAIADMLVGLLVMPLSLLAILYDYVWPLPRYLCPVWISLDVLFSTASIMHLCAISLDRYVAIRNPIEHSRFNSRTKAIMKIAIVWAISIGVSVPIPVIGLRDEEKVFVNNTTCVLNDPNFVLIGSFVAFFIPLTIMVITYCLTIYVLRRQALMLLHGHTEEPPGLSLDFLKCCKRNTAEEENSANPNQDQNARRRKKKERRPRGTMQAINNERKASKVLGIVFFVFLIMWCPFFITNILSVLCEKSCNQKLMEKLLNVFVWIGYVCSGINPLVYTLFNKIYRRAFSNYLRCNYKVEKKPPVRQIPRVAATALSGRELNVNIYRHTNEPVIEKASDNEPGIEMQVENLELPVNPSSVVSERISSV
The experiment in a line: Calcium mobilization (Ca++ flux) assay, agonist mode, 5-HT2C.
Text: as §1, §2
Cell lines expressing the GPCR of interest were expanded from freezer stocks according to standard procedures. Cells were seeded in a total volume of 20 μL into black-walled, clear-bottom, Poly-D-lysine coated 384-well microplates and incubated at 37° C. for the appropriate time prior to testing. […]
as §6
Compound activity data was analyzed using CBIS data analysis suite (ChemInnovation, CA). For agonist mode assays, percentage activity is calculated using the following formula: […]

In experiment [5] the target is T2, 5-HT2B. Kind of experiment: Calcium mobilization (Ca++ flux) assay, agonist mode, 5-HT2B. Particulars: for 5-HT2B, Ca++ flux % activation @30 uM: relative to MAX serotonin control; for EC50: agonist mode.
Text: as §1, §2, §3, §4, §5, §6, §7, §8, §9

Some results are limits rather than exact numbers.

The source of these data is patent US20240116896A1 (ATAI Life Sciences AG, priority 2022, published 2024).

As a reminder, the EC50 is the midpoint of the concentration-response curve.

T1 sequence (P28223 whole entry): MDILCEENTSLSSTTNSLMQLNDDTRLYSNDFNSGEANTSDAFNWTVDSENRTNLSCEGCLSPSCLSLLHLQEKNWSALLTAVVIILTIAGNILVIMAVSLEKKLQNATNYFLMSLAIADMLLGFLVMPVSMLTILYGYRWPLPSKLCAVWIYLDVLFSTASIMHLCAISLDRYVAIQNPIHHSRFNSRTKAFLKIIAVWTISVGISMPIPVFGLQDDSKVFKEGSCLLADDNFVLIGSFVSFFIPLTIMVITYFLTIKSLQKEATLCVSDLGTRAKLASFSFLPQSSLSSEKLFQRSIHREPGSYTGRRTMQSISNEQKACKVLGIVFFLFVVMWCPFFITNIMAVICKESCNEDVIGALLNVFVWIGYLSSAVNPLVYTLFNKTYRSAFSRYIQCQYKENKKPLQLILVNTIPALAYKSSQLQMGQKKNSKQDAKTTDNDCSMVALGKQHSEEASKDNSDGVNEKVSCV
T2 sequence (P41595 whole entry): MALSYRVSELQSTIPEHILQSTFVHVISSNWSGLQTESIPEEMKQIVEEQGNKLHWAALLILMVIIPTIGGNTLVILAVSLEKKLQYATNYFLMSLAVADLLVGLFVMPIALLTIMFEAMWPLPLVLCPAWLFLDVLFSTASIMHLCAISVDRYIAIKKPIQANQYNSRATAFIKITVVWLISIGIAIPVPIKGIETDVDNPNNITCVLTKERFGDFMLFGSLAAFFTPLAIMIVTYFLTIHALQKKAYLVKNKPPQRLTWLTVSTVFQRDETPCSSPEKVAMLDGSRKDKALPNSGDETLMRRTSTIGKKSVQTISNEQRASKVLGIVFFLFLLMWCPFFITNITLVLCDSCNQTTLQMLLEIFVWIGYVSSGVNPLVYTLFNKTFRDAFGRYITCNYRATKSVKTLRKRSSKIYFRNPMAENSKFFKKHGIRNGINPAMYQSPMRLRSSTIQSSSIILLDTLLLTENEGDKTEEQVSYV

`COC(=O)CN(C)CCc1c[nH]c2ccccc12` [Compound 4, methyl N-(2-(1H-indol-3-yl)ethyl)-N-methylglycinate]: on 5-HT2A [1], the EC50 is 0.302 µM and the “5-HT2A, Ca++ flux % activation @30 uM” value stood at 36.92%.

With `CN(CCc1c[nH]c2ccccc12)CC(=O)O` [Compound 5, N-(2-(1H-indol-3-yl)ethyl)-N-methylglycine], at 5-HT2A [1], the EC50 was more than 30 µM and the “5-HT2A, Ca++ flux % activation @30 uM” value is given as 24.51%.

On to `CN(CCO)CCc1c[nH]c2ccccc12` [Compound 6, 2-((2-(1H-indol-3-yl)ethyl)(methyl)amino)ethan-1-ol], for which, at 5-HT2A [1], the EC50 worked out at 0.101 µM and the “5-HT2A, Ca++ flux % activation @30 uM” value is reported as 42.83%.

`O=C(O)C1CCCN1CCc1c[nH]c2ccccc12` (stereo not drawn) [Compound 2, (2-(1H-indol-3-yl)ethyl)proline]: at 5-HT2A [1], the EC50 was more than 30 µM and the “5-HT2A, Ca++ flux % activation @30 uM” value was determined as 2.41%.

As for `COc1cccc2[nH]c(Br)c(CCN3CCCC3CO)c12` (stereo not drawn) [Compound 67, (1-(2-(2-bromo-4-methoxy-1H-indol-3-yl)ethyl)pyrrolidin-2-yl)methanol], at 5-HT2A [2], the activation at 0.3 µM was 27.2% and the activation at 30 µM was found to be 95.9%. Also, on 5-HT2B [3], the activation at 0.3 µM was found to be 19.2% and the activation at 30 µM stood at 87.1%.

In the case of `C[C@@]1(CO)CCCN1CCc1c[nH]c2ccccc12` [Compound 93, (S)-(1-(2-(1H-indol-3-yl)ethyl)-2-methylpyrrolidin-2-yl)methanol], on 5-HT2A [2], the activation at 0.3 µM was -11.3% and the activation at 30 µM stood at 1.82%. Also, at 5-HT2B [3], the activation at 0.3 µM is -0.54% and the activation at 30 µM turned out to be 25.6%.

In the case of `OC[C@@H]1CCCN1CCc1c[nH]c2ccc(F)cc12` [Compound 59, (S)-(1-(2-(5-fluoro-1H-indol-3-yl)ethyl)pyrrolidin-2-yl)methanol], at 5-HT2A [2], the EC50 was 0.0077 µM, the activation at 0.3 µM turned out to be 86.3% and the activation at 30 µM was found to be 89.4%. For the same compound, on 5-HT2B [3], it took 0.0089 µM to reach a half-maximal effect (EC50), the activation at 0.3 µM was found to be 79.8% and the activation at 30 µM was 85.7%.

Turning to `OC[C@@H]1CCCN1CCc1c[nH]c2ccc(OC(F)(F)F)cc12` [Compound 61, (S)-(1-(2-(5-(trifluoromethoxy)-1H-indol-3-yl)ethyl)pyrrolidin-2-yl)methanol], on 5-HT2A [2], the EC50 was determined as 0.076 µM, the activation at 0.3 µM turned out to be 46.1% and the activation at 30 µM amounted to 88.3%. In addition, at 5-HT2B [3], the response was half-maximal at 0.0577 µM (EC50), the activation at 0.3 µM worked out at 37.5% and the activation at 30 µM came to 76.2%.

Turning to `OC[C@@H]1CCCN1CCc1c[nH]c2cccc(O)c12` [Compound 49, (S)-3-(2-(2-(hydroxymethyl)pyrrolidin-1-yl)ethyl)-1H-indol-4-ol], on 5-HT2A [2], the response was half-maximal at 0.0225 µM (EC50), the activation at 0.3 µM stood at 99.2% and the activation at 30 µM worked out at 100%. Further, at 5-HT2B [3], it took 0.0432 µM to reach a half-maximal effect (EC50), the activation at 0.3 µM worked out at 92% and the activation at 30 µM came out at 99.1%.

For the compound `COc1ccc(Br)c2[nH]cc(CCN3CCCC3CO)c12` (stereo not drawn) [Compound 42, (1-(2-(7-bromo-4-methoxy-1H-indol-3-yl)ethyl)pyrrolidin-2-yl)methanol], at 5-HT2A [2], the activation at 0.3 µM worked out at 78.5% and the activation at 30 µM came out at 94.1%. On 5-HT2B [3], the activation at 0.3 µM stood at 22% and the activation at 30 µM was 46.2%.

For `OC[C@@H]1CCN1CCc1c[nH]c2ccccc12` [Compound 54, (S)-(1-(2-(1H-indol-3-yl)ethyl)azetidin-2-yl)methanol], on 5-HT2A [2], a half-maximal response (EC50) required 0.249 µM, the activation at 0.3 µM came to 81.1% and the activation at 30 µM is 101%. At 5-HT2B [3], the EC50 was determined as 0.78 µM, the activation at 0.3 µM amounted to 62% and the activation at 30 µM came out at 97.9%.

In the case of `OCC1CCCN1CCc1c[nH]c2ccccc12` (stereo not drawn) [Compound 3, (1-(2-(1H-indol-3-yl)ethyl)pyrrolidin-2-yl)methanol], the EC50 on 5-HT2A [1] is 0.103 µM; on 5-HT2A [4] it was 1.15 µM; on 5-HT2C it was 0.498 µM; at 5-HT2B [5] it was more than 30 µM. Besides, on 5-HT2A [1], the “5-HT2A, Ca++ flux % activation @30 uM” value is 94.73%. In addition, at 5-HT2B [5], the “5-HT2B, Ca++ flux % activation @30 uM” value came out at 23.51%. Moreover, the activation at 0.3 µM at 5-HT2A [2] came to 47.9%; on 5-HT2B [3], 25.9%. The activation at 30 µM came out at 97.5% at 5-HT2A [2] and 93.9% on 5-HT2B [3].

As to `COC(=O)C1CCCN1CCc1c[nH]c2ccccc12` (stereo not drawn) [Compound 1, methyl (2-(1H-indol-3-yl)ethyl)prolinate], the EC50 on 5-HT2A [1] was 0.987 µM; on 5-HT2A [4], 16.1 µM; at 5-HT2C it was 4.16 µM; at 5-HT2B [5] it was more than 30 µM. In addition, on 5-HT2A [1], the “5-HT2A, Ca++ flux % activation @30 uM” value worked out at 78.24%. Further, on 5-HT2B [5], the “5-HT2B, Ca++ flux % activation @30 uM” value was determined as 11.15%.
